Measurements: US10253027B2, “Aryl lactam kinase inhibitors” (Bristol-Myers Squibb Company, priority 2013, dated 2019)

Biological target: T1, GST-Xa-hAAK1 (Homo sapiens, UniProt Q2M2I8)
T1 construct: made in house
Assay: AAK1 Kinase Assay
Type: biochemical
Conditions: IC50 (nM), ATP 22 μM; 3 hours at room temperature; Caliper LabChip 3000
Procedure: The assays were performed in U-bottom 384-well plates. […] The reactions were initiated by the combination of bacterially expressed, GST-Xa-hAAK1 with substrates and test compounds. The reactions were incubated at room temperature for 3 hours and terminated by adding 60 μl of 35 mM EDTA buffer to each sample. The reactions were analyzed on the Caliper LabChip 3000 (Caliper, Hopkinton, Mass.) by electrophoretic separation of the fluorescent substrate and phosphorylated product. […] Compounds were dissolved at 10 mM in dimethylsulfoxide (DMSO) and evaluated at eleven concentrations. IC50 values were derived by non-linear regression analysis.

T1 sequence (Q2M2I8 whole entry): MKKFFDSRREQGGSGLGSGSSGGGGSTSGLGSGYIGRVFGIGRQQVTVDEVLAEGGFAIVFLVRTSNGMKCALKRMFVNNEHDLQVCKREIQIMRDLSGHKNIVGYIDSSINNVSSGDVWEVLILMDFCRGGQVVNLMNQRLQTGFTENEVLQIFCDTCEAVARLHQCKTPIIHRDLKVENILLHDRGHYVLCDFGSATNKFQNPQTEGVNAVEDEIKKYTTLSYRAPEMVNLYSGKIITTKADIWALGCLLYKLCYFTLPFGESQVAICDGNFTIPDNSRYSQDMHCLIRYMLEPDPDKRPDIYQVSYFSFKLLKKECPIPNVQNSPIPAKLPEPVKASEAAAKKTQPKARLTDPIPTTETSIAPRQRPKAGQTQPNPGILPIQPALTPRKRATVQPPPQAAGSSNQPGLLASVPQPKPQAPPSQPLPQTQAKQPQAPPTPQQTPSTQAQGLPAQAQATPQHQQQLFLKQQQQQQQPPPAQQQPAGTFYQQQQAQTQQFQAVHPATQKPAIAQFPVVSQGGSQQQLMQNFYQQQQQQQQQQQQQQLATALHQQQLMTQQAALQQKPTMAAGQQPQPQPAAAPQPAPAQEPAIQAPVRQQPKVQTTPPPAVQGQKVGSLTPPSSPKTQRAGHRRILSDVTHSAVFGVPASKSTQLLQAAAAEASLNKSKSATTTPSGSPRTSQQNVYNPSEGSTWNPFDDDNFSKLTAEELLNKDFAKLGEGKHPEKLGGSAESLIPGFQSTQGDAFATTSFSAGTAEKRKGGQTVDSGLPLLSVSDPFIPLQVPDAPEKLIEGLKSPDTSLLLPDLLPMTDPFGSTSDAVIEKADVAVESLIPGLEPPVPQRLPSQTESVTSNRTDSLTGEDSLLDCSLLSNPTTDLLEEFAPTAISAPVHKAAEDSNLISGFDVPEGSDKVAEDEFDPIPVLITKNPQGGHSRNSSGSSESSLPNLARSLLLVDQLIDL

Compound	IC50
COc1cc(NC(=O)C(CC(C)C)N[C@H]2CC[C@H](N)CC2)ccc1-c1cnco1 (stereo partly drawn) [Example 31, 2-(trans-4-Aminocyclohexylamino)-N-(3-methoxy-4-(oxazol-5-yl)phenyl)-4-methylpentanamide]	7320 nM
COc1cc(NC(=O)C(CC(C)C)NC2CNC2)ccc1-c1cnco1 (stereo not drawn) [Example 32, 2-(Azetidin-3-ylamino)-N-(3-methoxy-4-(oxazol-5-yl)phenyl)-4-methylpentanamide]	1140 nM
COc1cc(NC(=O)C(CC(C)C)N2CCC(N)CC2)ccc1-c1cnco1 (stereo not drawn) [Example 33, 2-(4-Aminopiperidin-1-yl)-N-(3-methoxy-4-(oxazol-5-yl)phenyl)-4-methylpentanamide]	2100 nM
COc1cc(NC(=O)[C@H](O)CC(C)C)ccc1-c1cnco1 [Example 34, (R)-2-Hydroxy-N-(3-methoxy-4-(oxazol-5-yl)phenyl)-4-methylpentanamide]	202 nM
COc1cc(NC(=O)C(CN)CC(C)C)ccc1-c1cnco1 (stereo not drawn) [Example 35, 2-(Aminomethyl)-N-(3-methoxy-4-(oxazol-5-yl)phenyl)-4-methylpentanamide]	83 nM
CC(C)C[C@@H](N)C(=O)Nc1ccc(-c2cnco2)c(F)c1 [Example 40, (R)-2-Amino-N-(3-fluoro-4-(oxazol-5-yl)phenyl)-4-methylpentanamide]	460 nM
CC(C)C[C@@H](N)C(=O)Nc1ccc(-c2cn[nH]c2)c(OC(F)F)c1 [Example 41, 2-Amino-N-(3-(difluoromethoxy)-4-(1H-pyrazol-4-yl)phenyl)-4-methylpentanamide]	45 nM
CC(C)C[C@@H](N)C(=O)Nc1ccc(-c2cnco2)c(N(C)C)c1 [Example 42, 2-Amino-N-(3-(dimethylamino)-4-(oxazol-5-yl)phenyl)-4-methylpentanamide]	860 nM
COc1cc(NC(=O)[C@H](N)CC(C)C)ccc1-c1ccnc(Cl)c1 [Example 43, (R)-2-Amino-N-(4-(2-chloropyridin-4-yl)-3-methoxyphenyl)-4-methylpentanamide]	260 nM
COc1cnccc1-c1ccc(NC(=O)[C@H](N)CC(C)C)cc1 [Example 44, (R)-2-Amino-N-(4-(3-methoxypyridin-4-yl)phenyl)-4-methylpentanamide]	140 nM
COc1cc(NC(=O)C(N)CC(C)C)ccc1-c1ccnc(N)c1 (stereo not drawn) [Example 45, 2-Amino-N-(4-(2-aminopyridin-4-yl)-3-methoxyphenyl)-4-methylpentanamide]	150 nM
COc1cc(NC(=O)[C@H](N)CC(C)C)ccc1-c1cnc2cccnn12 [Example 46, (R)-2-amino-N-(4-(imidazo[1,2-b]pyridazin-3-yl)-3-methoxyphenyl)-4-methylpentanamide]	2200 nM
COc1cc(NC(=O)[C@H](N)CC(C)C)ccc1-c1cnc2ccc(Cl)nn12 [Example 47, (R)-2-Amino-N-(4-(6-chloroimidazo[1,2-b]pyridazin-3-yl)-3-methoxyphenyl)-4-methylpentanamide]	440 nM
CNc1cc(-c2ccc(NC(=O)C(N)CC(C)C)cc2OC)ccn1 (stereo not drawn) [Example 48, 2-Amino-N-(3-methoxy-4-(2-(methylamino)pyridin-4-yl)phenyl)-4-methylpentanamide]	450 nM
CNc1ccc2ncc(-c3ccc(NC(=O)[C@H](N)CC(C)C)cc3OC)n2n1 [Example 49, (R)-2-Amino-N-(3-(methoxy)-4-(6-(methylamino)imidazo[1,2-b]pyridazin-3-yl)phenyl)-4-methylpentanamide]	90 nM
CC[C@@H](N)C(=O)Nc1ccc(-c2cnco2)c(OC)c1 [Example 50, (R)-2-Amino-N-(3-methoxy-4-(oxazol-5-yl)phenyl)butanamide]	340 nM
CCC[C@H](N)C(=O)Nc1ccc(-c2cnco2)c(OC)c1 [Example 51, (S)-2-Amino-N-(3-methoxy-4-(oxazol-5-yl)phenyl)pentanamide]	590 nM
CCCC[C@@H](N)C(=O)Nc1ccc(-c2cnco2)c(OC)c1 [Example 52, (R)-2-Amino-N-(3-methoxy-4-(oxazol-5-yl)phenyl)hexanamide]	530 nM
CCCC[C@H](N)C(=O)Nc1ccc(-c2cnco2)c(OC)c1 [Example 53, (S)-2-Amino-N-(3-methoxy-4-(oxazol-5-yl)phenyl)hexanamide]	270 nM
COc1cc(NC(=O)[C@H](N)CCSC)ccc1-c1cnco1 [Example 54, (R)-2-Amino-N-(3-methoxy-4-(oxazol-5-yl)phenyl)-4-(methylthio)butanamide]	720 nM
CC[C@@H](C)[C@@H](N)C(=O)Nc1ccc(-c2cnco2)c(OC)c1 [Example 55, (2R,3R)-2-Amino-N-(3-methoxy-4-(oxazol-5-yl)phenyl)-3-methylpentanamide]	130 nM

Compound	IC50
COc1cc(NC(=O)[C@H](N)CC2CCCCC2)ccc1-c1cnco1 [Example 56, (R)-2-Amino-3-cyclohexyl-N-(3-methoxy-4-(oxazol-5-yl)phenyl)propanamide]	950 nM
COc1cc(NC(=O)C2CNC(=O)N2)ccc1-c1cnco1 (stereo not drawn) [Example 57, N-(3-Methoxy-4-(oxazol-5-yl)phenyl)-2-oxoimidazolidine-4-carboxamide]	780 nM
CNC1(C(=O)Nc2ccc(-c3cnco3)c(OC)c2)CC1 [Example 58, N-(3-Methoxy-4-(oxazol-5-yl)phenyl)-1-(methylamino)cyclopropanecarboxamide]	4400 nM
COc1cc(NC(=O)CN2CCCC2=O)ccc1-c1cnco1 [Example 59, N-(3-Methoxy-4-(oxazol-5-yl)phenyl)-2-(2-oxopyrrolidin-1-yl)acetamide]	2400 nM
COc1cc(NC(=O)[C@@H](CC(C)C)NCc2ccc(Cl)cc2)ccc1-c1cnco1 [Example 60, (R)-2-((4-Chlorobenzyl)amino)-N-(3-methoxy-4-(oxazol-5-yl)phenyl)-4-methylpentanamide]	210 nM
COc1cc(NC(=O)[C@@H](CC(C)C)NCc2cccn2C)ccc1-c1cnco1 [Example 61, (R)—N-(3-Methoxy-4-(oxazol-5-yl)phenyl)-4-methyl-2-(((1-methyl-1H-pyrrol-2-yl)methyl)amino)pentanamide]	72 nM
COc1cc(NC(=O)[C@@H](CC(C)C)NCc2ccccc2O)ccc1-c1cnco1 [Example 62]	220 nM
COc1cc(NC(=O)[C@@H](CC(C)C)NCc2ccc(C)cc2)ccc1-c1cnco1 [Example 63, (R)—N-(3-Methoxy-4-(oxazol-5-yl)phenyl)-4-methyl-2-((4-methylbenzyl)amino)pentanamide]	540 nM
COc1cc(NC(=O)[C@@H](CC(C)C)NCc2cnn(C)c2)ccc1-c1cnco1 [Example 64, (R)—N-(3-Methoxy-4-(oxazol-5-yl)phenyl)-4-methyl-2-(((1-methyl-1H-pyrazol-4-yl)methyl)amino)pentanamide]	150 nM
COc1cc(NC(=O)[C@@H](CC(C)C)NCc2ccsc2)ccc1-c1cnco1 [Example 65, (R)—N-(3-Methoxy-4-(oxazol-5-yl)phenyl)-4-methyl-2-((thiophen-3-ylmethyl)amino)pentanamide]	370 nM
COc1cc(NC(=O)[C@@H](CC(C)C)NCc2sccc2C)ccc1-c1cnco1 [Example 66, (R)—N-(3-Methoxy-4-(oxazol-5-yl)phenyl)-4-methyl-2-(((3-methylthiophen-2-yl)methyl)amino)pentanamide]	110 nM
COc1cc(NC(=O)[C@@H](CC(C)C)NCc2csnn2)ccc1-c1cnco1 [Example 67, (R)-2-(((1,2,3-Thiadiazol-4-yl)methyl)amino)-N-(3-methoxy-4-(oxazol-5-yl)phenyl)-4-methylpentanamide]	260 nM
COc1cc(NC(=O)[C@@H](CC(C)C)NS(C)(=O)=O)ccc1-c1cnco1 [Example 68, (R)—N-(3-Methoxy-4-(oxazol-5-yl)phenyl)-4-methyl-2-(methylsulfonamido)pentanamide]	67 nM
CCS(=O)(=O)N[C@H](CC(C)C)C(=O)Nc1ccc(-c2cnco2)c(OC)c1 [Example 69, (R)-2-(Ethylsulfonamido)-N-(3-methoxy-4-(oxazol-5-yl)phenyl)-4-methylpentanamide]	280 nM
CCCS(=O)(=O)N[C@H](CC(C)C)C(=O)Nc1ccc(-c2cnco2)c(OC)c1 [Example 70, (R)—N-(3-Methoxy-4-(oxazol-5-yl)phenyl)-4-methyl-2-(propylsulfonamido)pentanamide]	310 nM
COc1cc(NC(=O)[C@@H](CC(C)C)NS(=O)(=O)c2ccccc2)ccc1-c1cnco1 [Example 71, (R)—N-(3-methoxy-4-(oxazol-5-yl)phenyl)-4-methyl-2-(phenylsulfonamido)pentanamide]	400 nM
COc1cc(NC(=O)[C@@H](CC(C)C)NS(=O)(=O)Cc2ccccc2)ccc1-c1cnco1 [Example 72, (R)—N-(3-Methoxy-4-(oxazol-5-yl)phenyl)-4-methyl-2-(phenylmethylsulfonamido)pentanamide]	1300 nM
COc1cc(NC(=O)[C@@H]2CCCCN2)ccc1-c1cnco1 [Example 73, (S)—N-(3-Methoxy-4-(oxazol-5-yl)phenyl)piperidine-2-carboxamide]	1500 nM
COc1cc(NC(=O)[C@H](N)CC(C)(C)C)ccc1-c1cnco1 [Example 74, (R)-2-Amino-N-(3-methoxy-4-(oxazol-5-yl)phenyl)-4,4-dimethylpentanamide]	680 nM
COc1cc(NC(=O)[C@H](N)CO)ccc1-c1cnco1 [Example 75, (R)-2-Amino-3-hydroxy-N-(3-methoxy-4-(oxazol-5-yl)phenyl)propanamide]	5100 nM
COc1cc(NC(=O)C(N)CCC(F)(F)F)ccc1-c1cnco1 (stereo not drawn) [Example 76, 2-Amino-5,5,5-trifluoro-N-(3-methoxy-4-(oxazol-5-yl)phenyl)pentanamide]	110 nM
